Experiment [1] deals with Prostaglandin E2 receptor EP2 subtype (Homo sapiens, UniProt P43116). Nature of the experiment: Binding affinity for human prostanoid EP2 receptor.
For experiment [2], the target named is T1, Prostaglandin E2 receptor EP3 subtype (Homo sapiens, UniProt P43115).
T1 sequence (P43115 whole entry): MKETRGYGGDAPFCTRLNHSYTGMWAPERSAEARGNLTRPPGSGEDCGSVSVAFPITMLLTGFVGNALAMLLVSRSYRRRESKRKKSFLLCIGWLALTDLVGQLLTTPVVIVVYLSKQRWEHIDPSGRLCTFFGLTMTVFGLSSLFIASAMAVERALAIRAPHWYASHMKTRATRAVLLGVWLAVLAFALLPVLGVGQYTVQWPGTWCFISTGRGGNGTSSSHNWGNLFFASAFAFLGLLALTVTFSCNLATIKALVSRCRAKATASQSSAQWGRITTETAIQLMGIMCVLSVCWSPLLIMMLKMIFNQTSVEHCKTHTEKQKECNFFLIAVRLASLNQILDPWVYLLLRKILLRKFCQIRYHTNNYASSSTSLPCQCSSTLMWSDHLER
The experiment in a line: Binding affinity for human prostanoid EP3 receptor.

The target of experiment [3] is Prostaglandin E2 receptor EP4 subtype (Homo sapiens, UniProt P35408). The experiment in a line: Binding affinity for human prostanoid EP4 receptor.

Molecules are shown by their SMILES.

The source of these data is BindingDB's records for doi:10.1016/j.bmcl.2004.11.051 (Merck Frosst Centre For Therapeutic Research, 2005).

Sequence of Prostaglandin E2 receptor EP4 subtype (P35408 whole entry): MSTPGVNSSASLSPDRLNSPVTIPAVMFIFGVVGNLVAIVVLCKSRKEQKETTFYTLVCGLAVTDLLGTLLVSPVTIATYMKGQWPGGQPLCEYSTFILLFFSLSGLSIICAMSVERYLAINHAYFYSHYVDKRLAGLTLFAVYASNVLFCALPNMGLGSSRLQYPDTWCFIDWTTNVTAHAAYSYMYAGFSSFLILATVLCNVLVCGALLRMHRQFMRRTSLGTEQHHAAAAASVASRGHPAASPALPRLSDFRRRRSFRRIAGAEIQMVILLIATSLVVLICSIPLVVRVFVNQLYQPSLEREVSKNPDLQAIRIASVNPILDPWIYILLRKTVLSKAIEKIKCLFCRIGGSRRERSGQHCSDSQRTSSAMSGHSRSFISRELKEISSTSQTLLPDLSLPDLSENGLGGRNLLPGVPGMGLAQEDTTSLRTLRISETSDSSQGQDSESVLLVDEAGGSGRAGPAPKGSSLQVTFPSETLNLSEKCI
Sequence of Prostaglandin E2 receptor EP2 subtype (P43116 whole entry): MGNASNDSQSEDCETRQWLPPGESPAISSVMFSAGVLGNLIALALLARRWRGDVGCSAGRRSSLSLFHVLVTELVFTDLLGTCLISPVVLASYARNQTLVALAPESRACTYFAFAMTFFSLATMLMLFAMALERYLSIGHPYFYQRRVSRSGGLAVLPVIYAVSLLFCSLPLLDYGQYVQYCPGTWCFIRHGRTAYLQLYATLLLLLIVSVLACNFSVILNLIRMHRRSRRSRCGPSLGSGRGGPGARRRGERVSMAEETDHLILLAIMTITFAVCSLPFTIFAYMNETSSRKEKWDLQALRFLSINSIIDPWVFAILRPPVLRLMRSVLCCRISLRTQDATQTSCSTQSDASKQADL

`Cc1cccc(C/C=C/c2ccccc2/C=C/C(=O)O)c1OCc1ccccc1`: the Ki amounted to 860 nM in experiment [1], 9 nM in experiment [2] and 2000 nM in experiment [3].
